Test results from US20030134859A1 (SANKYO COMPANY, LIMITED, priority 2000, published 2003).
Read-outs that look alike come from different tables or passages of the source.

Key:
TNF-α production = assay: Inhibitory activity against cytokine (TNF-α) production in LPS-stimulated RAW264.7 cells; type: cell-based, mouse; details: Mus musculus, 1 μM test compound, LPS 10 ng/mL
Method: The mouse monocyte/macrophage cell line, RAW264.7 (ATCC TIB71) was purchased from Dainippon Pharmaceutical Co., Ltd. The RAW264.7 cells were cultured in a CO2 incubator (37° C., 95% of humidity, 5% of CO2) by using the Dulbecco's modified Eagle's medium (DMEM medium; GIBCO, Cat. No. 11995-040) containing bovine fetal serum (the final concentration: 10% (v/v), MOREGATE, lot No. 474030), penicillin G (the final concentration: 50 units/mL […], GIBCO) and streptomycin (the final concentration: 20 μg/mL, GIBCO).
Sixty (60) μL of the RAW264.7 cell suspension (83,000 cells/mL) were plated into each well of a 96-well microplate (5,000 cells/well). After the cells were cultured for 4 hr in a CO2 incubator, 40 μL of DMEM medium containing 25 ng/mL of LPS (Sigma-Aldrich Japan K. K.) were added into each well (final concentration of LPS: 10 ng/mL). The test compound dissolved in DMSO at a concentration of 1 mM was diluted with DMEM medium by 20 times. Then 2 μL/well of the diluted solution were added to wells containing the plated cells (final concentration of the test compound: 1 μM). As the control, 2 μL/well of DMSO diluted with DMEM medium by 20 times were added to wells containing the plated cells either with LPS (final concentration: 10 ng/mL) or without LPS. After these cells were cultured in a CO2 incubator for 15 hr, the supernatant of the medium was recovered. The amount of mTNF-α in the medium supernatant was determined with a mouse TNF-α ELISA kit Quantikine M (R&D System), according to the experiment protocol attached with the kit.
The inhibitory activity of the test compound against TNF-α production was calculated according to the following equation.
A: The amount of TNF-α in the presence of test compound
B: The amount of TNF-α in the control without LPS
C: The amount of TNF-α in the control with 10 ng/mL of LPS
Inhibitory Activity of the Test Compound against TNF-α Production (%)=100−(A−B)/(C−B)×100

Rat white adipocytes [1] = assay: Stimulation of differentiation of the adipocytes (Oil Red O); type: cell-based; details: Rattus norvegicus, Adipocyte, 120 h, 100 nM test compound; 5 days; Oil Red O ABS550; control = 100%, blank = 0%; Table 7; read-out: Rate of Differentiation (%)
Method: Rat white adipocytes contained in the white adipocyte culture kit, which was purchased from HOKUDO, were used. Mediums for proliferation and for differentiation-inducing, which were contained in the white adipocyte culture kit purchased from HOKUDO, were used.
Immediately after arrival of the purchased cells, all medium for transportation was discarded and replaced with 5 ml of proliferation medium (/25 cm^2-flask) and the cells were cultured for one day. Then, a cell suspension was prepared with proliferation medium so as to be 83,000 cells/mL, and the suspension was plated into a type I 96-well collagen-coated microplate (SUMITOMO BAKELITE CO., ltd.) so as to be 5,000 cells/well (60 μL/well). For the blank, the proliferation medium without the cells was plated into the well (blank well) of each plate.
Further, 1) in the group treated with the test compound, 3 μL/well of a solution in which the test compound (100 μM) was dissolved in DMSO solution and diluted with differentiation-inducing medium by 20 times (final concentration of the test compound: 100 nM, final concentration of DMSO: 0.1% (v/v)) were added to the well where the cells were plated. 2) In the control group, 3 μL/well of DMSO solution that was diluted with differentiation-inducing medium by 20 times (final concentration of DMSO: 0.1% (v/v)) were added to the well where the cells were plated. Further, 3) in the blank group, 3 μL/well of DMSO solution that was diluted with differentiation-inducing medium by 20 times (final concentration: 0.1% (v/v)) were added to the blank well.
After culturing for 5 days, all differentiation-inducing medium was discarded and replaced with 60 μL of 10% (v/v) of formaldehyde solution (for fixation) in each well and the cells were kept stationary for 20 min at room temperature. After this the fixative solution was discarded and replaced with 60 μL of 0.2% (v/v) Triton X (Sigma-Aldrich Japan K. K.) solution in each well and kept stationary for 5 min at the room temperature. Then all Triton X solution was discarded and replaced with 60 μL of 60% (v/v) isopropanol solution containing dissolved Oil Red 0 (Sigma-Aldrich Japan K. K.) so as to be 0.3%, which was adipose tissue staining solution, and the well was left stationary for 10 min at room temperature. After the adipose tissue staining solution was discarded, the well was washed twice with 60 μL of 60% (v/v) isopropanol solution. Then, 100 μL of the DMSO were added to each well and stirred for 5 min at room temperature. The absorbance was measured at 550 nm (ABS550) with a multi-plate reader (LabsSystems), and the stained amount by Oil Red 0 was determined. The measured level at ABS550 in the control group was defined as 100%, while the level at ABS550 in the blank group was defined as 0%. The differentiation rate (%) of the adipocytes treated with the test compound was calculated.

[2] = system: Mouse preadipocyte strain 3T3-L1; assay: Inhibition of differentiation as an indication of acetic acid uptake; type: cell-based; details: Mus musculus, control (0.01% dimethylsulfoxide) = 100%, read-out: Rate of Uptake (%) of [2-14C] acetic acid
Outline: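 Differentiation is indexed by 1 hr [2-14C]acetic acid incorporation, measured by scintillation counting and given as uptake relative to 0.01% DMSO control (100%). Mouse 3T3-L1 preadipocytes, pre-grown 10 days, received 0.1 μM test substance throughout a 4-day insulin/IBMX/dexamethasone induction, followed by 2 days' maintenance culture.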

Rat white adipocytes [3] = assay: Inhibition of the differentiation of adipocytes (Oil Red O); type: cell-based; details: Rattus norvegicus, Adipocyte, 120 h, 100 nM test compound; 5 days; Oil Red O ABS550; control = 100%, blank = 0%; Table 3; read-out: Rate of Differentiation (%)
Outline: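 Rat white preadipocytes, 5,000 cells/well, given differentiation medium with compound at 100 nM final (0.1% DMSO) for 5 days at 37 °C. Lipid stained with Oil Red O, eluted in DMSO, read at 550 nm; differentiation % relative to DMSO control (100%) and blank (0%).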

| SMILES | inhibition at 1 µM (TNF-α production; RAW264.7, 15 h) | activity at 0.1 µM (Rat white adipocytes [1]) | activity at 0.1 µM ([2]; 3T3-L1, 0.1 μM test substance) | inhibition at 1 µM (TNF-α production; 15 hr) | activity at 0.1 µM ([2]; 0.1 μM test substance) | activity at 0.1 µM (Rat white adipocytes [3]) |
| --- | --- | --- | --- | --- | --- | --- |
| CCc1ccc(NC(=O)c2cc([N+](=O)[O-])ccc2Cl)cc1 [Example 12, N-(4-Ethylphenyl)-(2-chloro-5-nitrophenyl)carboxamide] | 21.8% | 120% | 66.4% |  |  |  |
| CCc1ccccc1NC(=O)c1cc([N+](=O)[O-])ccc1Cl [Example 13, N-(2-Ethylphenyl)-(2-chloro-5-nitrophenyl)carboxamide] | 16.2% | 127% | 93% |  |  |  |
| O=C(Nc1nc(-c2cccc([N+](=O)[O-])c2)cs1)c1cc([N+](=O)[O-])ccc1Cl [Example 61, N-[4-(3-Nitrophenyl)thiazol-2-yl]-(2-chloro-5-nitrophenyl)carboxamide] |  |  |  | 22.6% | 74.8% |  |
| O=C(Nc1nc2ccc(Cl)cc2s1)c1cc([N+](=O)[O-])ccc1Cl [Example 68, N-(6-Chlorobenzothiazol-2-yl)-(2-chloro-5-nitrophenyl)carboxamide] | 15.2% | 116% | 67.9% |  |  |  |
| O=C(Nc1ccc(NC(=O)c2cc([N+](=O)[O-])ccc2Cl)cc1)c1cccnc1 [Example 123, N-[4-(Pyridin-3-ylcarbonylamino)phenyl]-(2-chloro-5-nitrophenyl)carboxamide] | 15.1% | 148% | 96.2% |  |  |  |
| CC(=O)Oc1ccc(-c2ccc(NC(=O)c3cc([N+](=O)[O-])ccc3Cl)cc2)cc1 [Example 134, N-[4-(4-Acetoxyphenyl)phenyl]-(2-chloro-5-nitrophenyl)carboxamide] | 16.4% | 120% |  |  |  |  |
| O=C(Nc1ccc(C(=O)N2CCN(c3ccccc3)CC2)cc1)c1cc([N+](=O)[O-])ccc1Cl [Example 165, N-[4-(4-Phenylpiperazin-1-ylcarbonyl)phenyl]-(2-chloro-5-nitrophenyl)carboxamide] | 15.7% |  |  |  |  | 85.8% |
| CCCCCCN(CCCC)c1ccc(-c2ccc(NC(=O)c3cc([N+](=O)[O-])ccc3Cl)cc2)cc1 [Example 199, N-[4-[4-(N-Butyl-N-hexylamino)phenyl]phenyl]-(2-chloro-5-nitrophenyl)carboxamide] | 20.8% |  |  |  |  | 35.8% |
| CCCCCN(CCC)c1ccc(-c2ccc(NC(=O)c3cc([N+](=O)[O-])ccc3Cl)cc2)cc1 [Example 211, N-[4-[4-(N-Pentyl-N-propylamino)phenyl]phenyl]-(2-chloro-5-nitrophenyl)carboxamide] | 27.6% |  |  |  |  | 37.3% |
| Nc1ccc(-c2csc(NC(=O)c3cc([N+](=O)[O-])ccc3Cl)n2)cc1 [Example 241, N-[4-(4-Aminophenyl)thiazol-2-yl]-(2-chloro-5 nitrophenyl)carboxamide] | 28% |  |  |  |  | 57.9% |
| CCOC(=O)NC(=O)Nc1ccc(-c2ccc(NC(=O)c3cc([N+](=O)[O-])ccc3Cl)cc2)cc1 [Example 244, N-[4-[4-(Ethoxycarbonylaminocarbonylamino)phenyl]phenyl]-(2-chloro-5-nitrophenyl)carboxamide] | 26.5% |  |  |  |  | 45% |
| O=C(NCc1ccccc1)Nc1ccc(-c2ccc(NC(=O)c3cc([N+](=O)[O-])ccc3Cl)cc2)cc1 [Example 248, N-[4-[4-(Benzylaminocarbonylamino)phenyl]phenyl]-(2-chloro-5-nitrophenyl)carboxamide] | 19.1% |  |  |  |  | 64.4% |
| Nc1cccc(-c2csc(NC(=O)c3cc([N+](=O)[O-])ccc3Cl)n2)c1 [Example 253, N-[4-(3-Aminophenyl)thiazol-2-yl]-(2-chloro-5-nitrophenyl)carboxamide] | 29% |  |  |  |  | 55.7% |
